From ChEMBL document CHEMBL1147745, “Targeting FtsZ for antituberculosis drug discovery: noncytotoxic taxanes as novel antituberculosis agents” (J Med Chem, 2006)
Converted amounts (≈) assume the structure as drawn. The source made the active and inactive calls. The calls are words filed in the database; no cut-off is given here.

Experiments:
[1] = system: Mycobacterium tuberculosis; experiment: Antimicrobial activity against Mycobacterium tuberculosis IMCJ946.K2; type: functional
MCF7 = experiment: Cytotoxicity against human MCF7 cell line; type: functional, cell-based
[2] = system: Mycobacterium tuberculosis; experiment: Antimicrobial activity against Mycobacterium tuberculosis H37Rv; type: functional
A549 = experiment: Cytotoxicity against human A549 cell line; type: functional, cell-based
[3] = target: T1, Cell division protein FtsZ (Mycobacterium tuberculosis) (UniProt P9WN95); experiment: FtsZ inactivation in MTB cells at MIC; type: cell-based
T1 sequence (whole entry): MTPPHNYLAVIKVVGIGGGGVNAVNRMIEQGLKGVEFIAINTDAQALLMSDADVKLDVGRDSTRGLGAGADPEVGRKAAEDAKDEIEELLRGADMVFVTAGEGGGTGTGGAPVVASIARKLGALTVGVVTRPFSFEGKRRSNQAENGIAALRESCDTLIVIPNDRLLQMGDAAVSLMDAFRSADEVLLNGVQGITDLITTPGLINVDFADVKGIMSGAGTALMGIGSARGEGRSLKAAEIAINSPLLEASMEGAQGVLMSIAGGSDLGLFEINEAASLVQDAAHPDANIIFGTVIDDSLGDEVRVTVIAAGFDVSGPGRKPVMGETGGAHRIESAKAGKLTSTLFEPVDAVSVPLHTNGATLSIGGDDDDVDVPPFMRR

| Compound | MIC99 [1] [µM] | IC50 (MCF7) [µM] | MIC99 [2] [µM] | IC50 (A549) [µM] | Activity [3] |
| --- | --- | --- | --- | --- | --- |
| CC(=O)O[C@@]12CO[C@@H]1C[C@H](O)[C@@]1(C)C(=O)[C@H](OC(=O)/C=C/c3ccc4ccccc4c3)C3=C(C)[C@@H](O)C[C@@](O)([C@@H](OC(=O)c4ccccc4)[C@H]21)C3(C)C | 10 (≈ 7.25 µg/mL) | 14 | 20 (≈ 14.5 µg/mL) | – | – |
| CCCCCC(=O)O[C@H]1C(=O)[C@@]2(C)[C@H]([C@H](OC(=O)c3ccccc3)[C@]3(O)C[C@H](OC(=O)[C@H](O)[C@@H](NC(=O)c4ccccc4)c4ccccc4)C(C)=C1C3(C)C)[C@]1(OC(C)=O)CO[C@@H]1C[C@@H]2O | 1.25 (≈ 1.14 µg/mL) | 0.65 | 5 (≈ 4.55 µg/mL) | 0.65 | – |
| CC(=O)O[C@@]1([C@@H]2/C(C)=C(/O)C(=O)C3=C(C)[C@@H](OC(=O)/C=C/c4ccc(Oc5ccccc5)cc4)C[C@@](O)([C@H]2OC(=O)c2ccccc2)C3(C)C)CO[C@@H]1CCO | 1.25 (≈ 0.959 µg/mL) | > 80 | 2.5 (≈ 1.92 µg/mL) | > 80 | – |
| CC(=O)O[C@H]1C(=O)[C@@]2(C)[C@H]([C@H](OC(=O)c3ccccc3)[C@]3(O)C[C@H](OC(=O)[C@H](O)[C@@H](NC(=O)c4ccccc4)c4ccccc4)C(C)=C1C3(C)C)[C@]1(OC(C)=O)CO[C@@H]1C[C@@H]2O [PACLITAXEL] | 40 (≈ 34.2 µg/mL) | 0.019 | 40 (≈ 34.2 µg/mL) | 0.028 | – |
| CC(=O)O[C@@]1([C@@H]2/C(C)=C(/O)C(=O)C3=C(C)[C@@H](OC(=O)/C=C/c4ccc(Sc5ccccc5)cc4)C[C@@](O)([C@H]2OC(=O)c2ccccc2)C3(C)C)CO[C@@H]1CCO | 1.25 (≈ 0.979 µg/mL) | > 80 | 2.5 (≈ 1.96 µg/mL) | > 80 | – |
| CC(=O)O[C@@]12CO[C@@H]1C[C@H](O)[C@@]1(C)C(=O)[C@H](OC(=O)N(C)C)C3=C(C)[C@@H](OC(=O)/C=C/c4ccc5ccccc5c4)C[C@@](O)([C@@H](OC(=O)c4ccccc4)[C@H]21)C3(C)C | – | – | – | – | Active |
| CC(=O)O[C@@]12CO[C@@H]1C[C@H](O)[C@@]1(C)C(=O)[C@H](O)C3=C(C)[C@@H](OC(=O)/C=C/c4ccc(Oc5ccccc5)cc4)C[C@@](O)([C@@H](OC(=O)c4ccccc4)[C@H]21)C3(C)C | 10 (≈ 7.67 µg/mL) | 9.3 | 10 (≈ 7.67 µg/mL) | 12.5 | – |
| CC(=O)O[C@@]12CO[C@@H]1C[C@H](O)[C@@]1(C)C(=O)[C@H](O)C3=C(C)[C@@H](OC(=O)/C=C/c4ccc(Sc5ccccc5)cc4)C[C@@](O)([C@@H](OC(=O)c4ccccc4)[C@H]21)C3(C)C | 2.5 (≈ 1.96 µg/mL) | 3.4 | 2.5 (≈ 1.96 µg/mL) | 4.5 | – |
| COc1ccc2cc(/C=C/C(=O)O[C@H]3C[C@@]4(O)[C@@H](OC(=O)c5ccccc5)[C@@H]5[C@]6(OC(C)=O)CO[C@@H]6C[C@H](O)[C@@]5(C)C(=O)[C@H](O)C(=C3C)C4(C)C)ccc2c1 | 5 (≈ 3.77 µg/mL) | 5.3 | 5 (≈ 3.77 µg/mL) | 5 | – |
| COc1ccc2cc(/C=C/C(=O)O[C@H]3C[C@@]4(O)[C@@H](OC(=O)c5ccccc5)[C@H]([C@]5(OC(C)=O)CO[C@@H]5CCO)/C(C)=C(/O)C(=O)C(=C3C)C4(C)C)ccc2c1 | 2.5 (≈ 1.89 µg/mL) | > 80 | 2.5 (≈ 1.89 µg/mL) | > 80 | – |
| COc1ccc(C(=O)O[C@H]2[C@@H]3[C@]4(OC(C)=O)CO[C@@H]4C[C@H](O)[C@@]3(C)C(=O)[C@H](O)C3=C(C)[C@@H](OC(=O)/C=C/c4ccc5ccccc5c4)C[C@]2(O)C3(C)C)cc1 | 2.5 (≈ 1.89 µg/mL) | 7.6 | 5 (≈ 3.77 µg/mL) | 14 | – |
| CC(=O)O[C@@]12CO[C@@H]1C[C@H](OC(=O)CN(C)C)[C@@]1(C)C(=O)[C@H](O)C3=C(C)[C@@H](OC(=O)/C=C/c4ccc5ccccc5c4)C[C@@](O)([C@@H](OC(=O)c4ccccc4)[C@H]21)C3(C)C | 5 (≈ 4.05 µg/mL) | > 20 | 20 (≈ 16.2 µg/mL) | 4.3 | – |
| CCN(CC)CCC(=O)O[C@H]1C(=O)[C@@]2(C)[C@H]([C@H](OC(=O)c3ccccc3)[C@]3(O)C[C@H](OC(=O)/C=C/c4ccc5ccccc5c4)C(C)=C1C3(C)C)[C@]1(OC(C)=O)CO[C@@H]1C[C@@H]2O | 5 (≈ 4.26 µg/mL) | 3.9 | 10 (≈ 8.52 µg/mL) | 9.6 | – |
| CC(=O)O[C@@]12CO[C@@H]1C[C@H](O)[C@@]1(C)C(=O)[C@H](O)C3=C(C)[C@@H](OC(=O)/C=C/c4ccc5ccccc5c4)C[C@@](O)([C@@H](OC(=O)c4ccccc4)[C@H]21)C3(C)C | 2.5 (≈ 1.81 µg/mL) | 4.5 | 5 (≈ 3.62 µg/mL) | 15.7 | – |
| CC(=O)O[C@@]12CO[C@@H]1C[C@H](O)[C@@]1(C)C(=O)[C@H](O)C3=C(C)[C@@H](OC(=O)/C=C/c4cccc5ccccc45)C[C@@](O)([C@@H](OC(=O)c4ccccc4)[C@H]21)C3(C)C | 5 (≈ 3.62 µg/mL) | 5.4 | 5 (≈ 3.62 µg/mL) | 80 | – |
| CCN(CC)CCC(=O)O[C@H]1C[C@H]2OC[C@@]2(OC(C)=O)[C@H]2[C@H](OC(=O)c3ccccc3)[C@]3(O)C[C@H](OC(=O)/C=C/c4ccc5ccccc5c4)C(C)=C([C@@H](OC(C)=O)C(=O)[C@]12C)C3(C)C | 20 (≈ 17.9 µg/mL) | 9.4 | 10 (≈ 8.94 µg/mL) | 17 | – |
| CC(=O)O[C@@]1([C@@H]2/C(C)=C(/O)C(=O)C3=C(C)[C@@H](OC(=O)/C=C/c4ccc5ccccc5c4)C[C@@](O)([C@H]2OC(=O)c2ccccc2)C3(C)C)CO[C@@H]1CCO | 1.25 (≈ 0.906 µg/mL) | > 80 | 2.5 (≈ 1.81 µg/mL) | > 80 | Active |
| CC(=O)O[C@@]12CO[C@@H]1C[C@H](O)[C@@]1(C)C(=O)[C@H](OC(=O)CN(C)C)C3=C(C)[C@@H](OC(=O)/C=C/c4ccc5ccccc5c4)C[C@@](O)([C@@H](OC(=O)c4ccccc4)[C@H]21)C3(C)C | 10 (≈ 8.1 µg/mL) | 7 | 10 (≈ 8.1 µg/mL) | 10.8 | – |
